Results taken from US8436012B2, “Imidazopyridin-2-one derivatives” (Daiichi Sankyo Company, Limited, priority 2008, dated 2013).

Key:
human mTOR = biological target: T1, human mTOR (Homo sapiens, UniProt P42345); assay: mTOR Kinase Activity Inhibition Test; assay type: biochemical; settings: His-tagged mTOR (1362C), biotinylated peptide substrate, ATP, 3 hours at room temperature, fluorescence resonance energy transfer 665 nm/620 nm; read-out: IC50 value of mTOR enzyme inhibitory activity
T1 construct: the portion corresponding to 1362-2549aa at the C terminus of human mTOR; made in house
T1 sequence (P42345 1362-2549): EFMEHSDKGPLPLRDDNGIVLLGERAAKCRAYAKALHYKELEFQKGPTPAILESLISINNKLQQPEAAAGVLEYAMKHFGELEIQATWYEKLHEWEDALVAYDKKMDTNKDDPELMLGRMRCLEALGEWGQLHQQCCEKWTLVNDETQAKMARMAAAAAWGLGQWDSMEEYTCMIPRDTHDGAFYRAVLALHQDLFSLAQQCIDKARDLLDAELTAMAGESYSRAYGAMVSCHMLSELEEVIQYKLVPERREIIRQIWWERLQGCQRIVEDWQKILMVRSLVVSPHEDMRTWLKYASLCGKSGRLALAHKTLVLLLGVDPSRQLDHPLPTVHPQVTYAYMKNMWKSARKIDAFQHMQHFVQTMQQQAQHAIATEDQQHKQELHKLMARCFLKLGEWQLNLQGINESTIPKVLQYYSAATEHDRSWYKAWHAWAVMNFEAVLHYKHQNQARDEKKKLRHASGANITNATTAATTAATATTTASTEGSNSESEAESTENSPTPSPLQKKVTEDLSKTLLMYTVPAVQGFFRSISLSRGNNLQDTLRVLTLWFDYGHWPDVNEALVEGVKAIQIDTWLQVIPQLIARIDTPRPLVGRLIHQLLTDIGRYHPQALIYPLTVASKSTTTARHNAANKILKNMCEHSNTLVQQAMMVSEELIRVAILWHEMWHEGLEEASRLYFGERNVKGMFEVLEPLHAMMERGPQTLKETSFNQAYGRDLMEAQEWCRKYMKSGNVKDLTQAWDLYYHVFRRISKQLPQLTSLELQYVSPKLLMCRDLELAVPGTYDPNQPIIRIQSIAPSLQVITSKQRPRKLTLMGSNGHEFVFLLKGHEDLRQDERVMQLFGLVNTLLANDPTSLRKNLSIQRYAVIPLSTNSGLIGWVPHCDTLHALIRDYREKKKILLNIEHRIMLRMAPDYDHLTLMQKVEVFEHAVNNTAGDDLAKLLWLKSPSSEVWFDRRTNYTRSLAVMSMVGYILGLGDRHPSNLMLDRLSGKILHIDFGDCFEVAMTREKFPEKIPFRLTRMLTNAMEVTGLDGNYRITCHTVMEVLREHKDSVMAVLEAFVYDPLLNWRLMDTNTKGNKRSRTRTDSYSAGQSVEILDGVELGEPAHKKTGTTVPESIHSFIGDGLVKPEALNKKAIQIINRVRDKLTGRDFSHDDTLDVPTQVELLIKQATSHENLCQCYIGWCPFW
Method: The kinase activity of mTOR was measured in the presence or absence of a test compound. A substrate peptide is phosphorylated by mTOR kinase activity. A complex of streptavidin-XL665 and anti-phosphorylated S6K (Thr389) antibody/anti-mouse IgG-cryptate binds to this phosphorylated peptide. At this moment, fluorescence resonance energy transfer takes place from antibody/anti-mouse IgG-cryptate exposed to light excitation to XL665, which results in emission of fluorescence at 665 nm. The mTOR kinase activity is detected using this principle.
(1) Sample Preparation and Enzymatic Reaction
An HEK293 cell line that constitutively expresses a His tag fused human mTOR has been established. His tag was introduced into the N terminus of the portion corresponding to 1362-2549aa at the C terminus of human mTOR. Cell lysate was prepared from this HEK293 cell line constitutively expressing His-tagged mTOR (1362C), and His-tagged mTOR (1362C) was purified using the His tag affinity according to a conventional method.
Next, an mTOR enzyme solution was prepared, which contains the aforementioned His-tagged mTOR (1362C) enzyme, 8 μg/mL of biotinylated peptide (Biotin-Ahx-[…]-amide (Sigma)), as well as 50 mM HEPES (pH 7.5), 20 mM MnCl2, 1 mg/ml BSA, an appropriate amount of protease inhibitor cocktail (Complete EDTA free, Roche), 100 ng/ml Calyculin A, 4 μg/ml Cantharidin and 10 mM DTT as other components.
The test compound was dissolved in DMSO, and serial dilutions were prepared with 20 μM ATP solution (50 mM HEPES (pH 7.5), 20 μM ATP) to achieve concentrations necessary for the assay. 5 μL of this compound solution was applied to each well of a 384 well small volume white Greiner plate.
5 μL of mTOR enzyme solution was added to the aforementioned well containing the test compound. After mixing, the mixture was incubated at room temperature for 3 hours to carry out the enzymatic reaction.
The same operation was performed with a solution of DMSO in 20 μM ATP solution as a positive control and with a solution of DMSO in 50 mM HEPES (pH 7.5) as a negative control.
(2) Detection of Enzymatic Reaction
After the enzymatic reaction, 5 μl each of an europium solution (a solution of anti-mouse IgG-cryptate (SCETI Medical Labo K.K.) and anti-phosphorylated S6K (Thr389) antibody (Cell Signaling Technology Inc.) in 50 mM HEPES (pH 7.5), 100 mM EDTA and 1.5 mg/ml BSA) and an XL665 solution (a solution of streptavidin-XL665 (SCETI Medical Labo K.K.) in 50 mM HEPES (pH 7.5), 100 mM EDTA, 0.8 M KF and 1.5 mg/ml BSA) were added in this order and then mixed. The mixture was incubated at 4° C. overnight. On the following day, the mixture was returned to room temperature and irradiated with excitation light at 337 nm. Fluorescence at 620 nm and fluorescence at 665 nm were measured with RUBYstar (BMG).
The mTOR inhibitory activity (%) was calculated using the ratio calculated from the measured values as an index of enzyme activity. Here, the ratio was calculated from the following formula (I). Ratio=10000×665 nm fluorescence value/620 nm fluorescence value (1)
The mTOR enzyme inhibitory activity (%) was calculated from the following formula (2). mTOR enzyme inhibitory activity (%)=100×[(P−S)/(P−N)] (2)
P: Ratio in well of positive control
N: Ratio in well of negative control
S: Ratio in well containing test compound
Further, an optimal curve was calculated based upon each concentration of the test compound prepared in serial dilutions and the mTOR enzyme inhibitory activity (%) at that concentration. The concentration at which 50% inhibition occurred was calculated as the IC50 value of mTOR enzyme inhibitory activity.

WM-266-4 cells = assay: Cell Proliferation Inhibitory Test; assay type: cell-based; settings: Homo sapiens, 72 h, cultured three days with test compound, MTT, read-out: 50% cell proliferation inhibitory activity (GI50 value)
Method: WM-266-4 cells (ATCC, USA) were seeded in a 96-well plate and cultured overnight. Then, serial dilutions of the sample containing the test compound were prepared, added to each well and cultured another three days. Thereafter, the cell amount in each well was measured by MTT (MOSMANN, T., Rapid colorimetric assay for cellular growth and survival: application to proliferation and cytotoxicity assays. J. Immunol. Methods, 65, 55-63 (1983)). The 50% cell proliferation inhibitory activity (GI50 value) was calculated from the following formula (3). 100×[(T−T0)/(C−T0)]=50 (3)
Here, T represents values from the test compound added wells, C represents the value from the well to which the test compound was not added for three days, and To represents an initial measured value at the time of addition of the test compound.

| IC50 (human mTOR) [nM] | SMILES | GI50 (WM-266-4 cells) [nM] |
| --- | --- | --- |
| < 50 | CC1(Cn2c(=O)[nH]c3ncc(-c4cnc5[nH]ccc5c4)cc32)CCOCC1 [Example 25, 1-[(4-Methyltetrahydro-2H-pyran-4-yl)methyl]-6-(1H-pyrrolo[2,3-b]pyridin-5-yl)-1,3-dihydro-2H-imidazo[4,5-b]pyridin-2-one] | < 3000 |
| < 50 | CS(=O)(=O)N1CCC(Cn2c(=O)[nH]c3ncc(-c4cnc5[nH]ccc5c4)cc32)CC1 [Example 26, 1-{[1-(Methanesulfonyl)piperidin-4-yl]methyl}-6-(1H-pyrrolo[2,3-b]pyridin-5-yl)-1,3-dihydro-2H-imidazo[4,5-b]pyridin-2-one] | < 3000 |
| < 50 | O=c1[nH]c2ncc(-c3cc4cc[nH]c4cc3F)cc2n1CC1CCOCC1 [Example 28, 6-(6-Fluoro-1H-indol-5-yl)-1-(tetrahydro-2H-pyran-4-ylmethyl)-1,3-dihydro-2H-imidazo[4,5-b]pyridin-2-one] | < 3000 |
| < 50 | O=c1[nH]c2ncc(-c3cc(F)c4[nH]ccc4c3)cc2n1CC1CCOCC1 [Example 29, 6-(7-Fluoro-1H-indol-5-yl)-1-(tetrahydro-2H-pyran-4-ylmethyl)-1,3-dihydro-2H-imidazo[4,5-b]pyridin-2-one] | < 3000 |
| < 50 | O=c1[nH]c2ncc(-c3cnc4[nH]ccc4c3Cl)cc2n1CC1CCOCC1 [Example 34, 6-(4-Chloro-1H-pyrrolo[2,3-b]pyridin-5-yl)-1-(tetrahydro-2H-pyran-4-ylmethyl)-1,3-dihydro-2H-imidazo[4,5-b]pyridin-2-one] | < 3000 |
| < 50 | O=c1[nH]c2ncc(-c3cnc4[nH]cc(Cl)c4c3)cc2n1CC1CCOCC1 [Example 35, 6-(3-Chloro-1H-pyrrolo[2,3-b]pyridin-5-yl)-1-(tetrahydro-2H-pyran-4-ylmethyl)-1,3-dihydro-2H-imidazo[4,5-b]pyridin-2-one] | < 3000 |
| < 50 | O=c1[nH]c2ncc(-c3cnc4[nH]cc(Cl)c4c3)cc2n1C[C@H]1COCCO1 [Example 41, 6-(3-Chloro-1H-pyrrolo[2,3-b]pyridin-5-yl)-1-[(2S)-1,4-dioxan-2-ylmethyl]-1,3-dihydro-imidazo[4,5-b]pyridin-2-one] | < 3000 |
| < 50 | Cc1c(-c2cnc3[nH]c(=O)n(C[C@H]4COCCO4)c3c2)cnc2[nH]ccc12 [Example 42, 1-[(2S)-1,4-Dioxan-2-ylmethyl]-6-(4-methyl-1H-pyrrolo[2,3-b]pyridin-5-yl)-1,3-dihydro-imidazo[4,5-b]pyridin-2-one] | < 3000 |

Further lines, the molecule ahead of its results:

| SMILES | IC50 (human mTOR) [nM] | GI50 (WM-266-4 cells) [nM] |
| --- | --- | --- |
| O=c1[nH]c2ncc(-c3ccc4[nH]ccc4c3F)cc2n1CC1CCOCC1 [Example 27, 6-(4-Fluoro-1H-indol-5-yl)-1-(tetrahydro-2H-pyran-4-ylmethyl)-1,3-dihydro-2H-imidazo[4,5-b]pyridin-2-one] | < 50 | < 3000 |
| O=c1[nH]c2ncc(-c3cnc4[nH]ccc4c3)cc2n1CC1=CCCOC1 [Example 31, 1-(5,6-Dihydro-2H-pyran-3-ylmethyl)-6-(1H-pyrrolo[2,3-b]pyridin-5-yl)-1,3-dihydro-2H-imidazo[4,5-b]pyridin-2-one] | < 50 | < 3000 |
| O=c1[nH]c2ncc(-c3cnc4[nH]ccc4c3)cc2n1CC1CCCOC1 (stereo not drawn) [Example 32, 6-(1H-Pyrrolo[2,3-b]pyridin-5-yl)-1-(tetrahydro-2H-pyran-3-ylmethyl)-1,3-dihydro-2H-imidazo[4,5-b]pyridin-2-one] | < 50 | < 3000 |
| O=c1[nH]c2ncc(-c3cc(F)c4[nH]ccc4c3)cc2n1CCN1CCOCC1 [Example 33, 6-(7-Fluoro-1H-indol-5-yl)-1-(2-morpholin-4-ylethyl)-1,3-dihydro-2H-imidazo[4,5-b]pyridin-2-one] | < 50 | < 3000 |
| Cc1c(-c2cnc3[nH]c(=O)n(CC4CCOCC4)c3c2)cnc2[nH]ccc12 [Example 36, 6-(4-Methyl-1H-pyrrolo[2,3-b]pyridin-5-yl)-1-(tetrahydro-2H-pyran-4-ylmethyl)-1,3-dihydro-2H-imidazo[4,5-b]pyridin-2-one] | < 50 | < 3000 |
| Cc1c[nH]c2ncc(-c3cnc4[nH]c(=O)n(CC5CCOCC5)c4c3)cc12 [Example 37, 6-(3-Methyl-1H-pyrrolo[2,3-b]pyridin-5-yl)-1-(tetrahydro-2H-pyran-4ylmethyl)-1,3-dihydro-2H-imidazo[4,5-b]pyridin-2-one] | < 50 | < 3000 |
| O=c1[nH]c2ncc(-c3cnc4[nH]ccc4c3)cc2n1CC1COCCO1 (stereo not drawn) [Example 38, 1-(1,4-Dioxan-2-ylmethyl)-6-(1H-pyrrolo[2,3-b]pyridin-5-yl)-1,3-dihydro-2H-imidazo[4,5-b]pyridin-2-one] | < 50 | < 3000 |
| O=c1[nH]c2ncc(-c3cnc4[nH]ccc4c3)cc2n1C[C@@H]1COCCO1 [Example 39, 1-[(2R)-1,4-Dioxan-2-ylmethyl]-6-(1H-pyrrolo[2,3-b]pyridin-5-yl)-1,3-dihydro-2H-imidazo[4,5-b]pyridin-2-one] | < 50 | < 3000 |
| O=c1[nH]c2ncc(-c3cnc4[nH]ccc4c3)cc2n1C[C@H]1COCCO1 [Example 40, 1-[(2S)-1,4-Dioxan-2-ylmethyl]-6-(1H-pyrrolo[2,3-b]pyridin-5-yl)-1,3-dihydro-2H-imidazo[4,5-b]pyridin-2-one] | < 50 | < 3000 |
| Cc1c[nH]c2ncc(-c3cnc4[nH]c(=O)n(C[C@H]5COCCO5)c4c3)cc12 [Example 43, 1-[(2S)-1,4-Dioxan-2-ylmethyl]-6-(3-methyl-1H-pyrrolo[2,3-b]pyridin-5-yl)-1,3-dihydro-imidazo[4,5-b]pyridin-2-one] | < 50 | < 3000 |
| Cc1nc2[nH]c(=O)n(C[C@H]3COCCO3)c2cc1-c1cnc2[nH]ccc2c1 [Example 44, 1-[(2S)-1,4-Dioxan-2-ylmethyl]-5-methyl-6-(1H-pyrrolo[2,3-b]pyridin-5-yl)-1,3-dihydro-imidazo[4,5-b]pyridin-2-one] | < 50 | < 3000 |
| Cc1nc2[nH]c(=O)n(C[C@H]3COCCO3)c2cc1-c1cnc2[nH]ccc2c1C [Example 45, 1-[(2S)-1,4-Dioxan-2-ylmethyl]-5-methyl-6-(4-methyl-1H-pyrrolo[2,3-b]pyridin-5-yl)-1,3-dihydro-imidazo[4,5-b]pyridin-2-one] | < 50 | < 3000 |
| Cc1nc2[nH]c(=O)n(C[C@H]3COCCO3)c2cc1-c1cnc2[nH]cc(Cl)c2c1 [Example 46, 6-(3-Chloro-1H-pyrrolo[2,3-b]pyridin-5-yl)-1-[(2S)-1,4-dioxan-2-ylmethyl]-5-methyl-1,3-dihydro-imidazo[4,5-b]pyridin-2-one] | < 50 | < 3000 |
